Data taken from patent US6355633B1, “Aryl sulfonic acids and derivatives as FSH antagonists” (American Home Products Corporation, priority 1999, dated 2002).

target: T1, FSH receptor (Rattus norvegicus, UniProt P20395); experiment: In Vitro Bio-test Procedure of Agonists and Antagonists to the FSH Receptor Using Primary Cultures of Rat Granulosa (estradiol secretion); type: cell-based; conditions: not given
T1 construct: endogenous in cells; host or cells: primary ovarian granulosa cells of DES-treated immature Sprague-Dawley rats
T1 sequence (P20395 18-692): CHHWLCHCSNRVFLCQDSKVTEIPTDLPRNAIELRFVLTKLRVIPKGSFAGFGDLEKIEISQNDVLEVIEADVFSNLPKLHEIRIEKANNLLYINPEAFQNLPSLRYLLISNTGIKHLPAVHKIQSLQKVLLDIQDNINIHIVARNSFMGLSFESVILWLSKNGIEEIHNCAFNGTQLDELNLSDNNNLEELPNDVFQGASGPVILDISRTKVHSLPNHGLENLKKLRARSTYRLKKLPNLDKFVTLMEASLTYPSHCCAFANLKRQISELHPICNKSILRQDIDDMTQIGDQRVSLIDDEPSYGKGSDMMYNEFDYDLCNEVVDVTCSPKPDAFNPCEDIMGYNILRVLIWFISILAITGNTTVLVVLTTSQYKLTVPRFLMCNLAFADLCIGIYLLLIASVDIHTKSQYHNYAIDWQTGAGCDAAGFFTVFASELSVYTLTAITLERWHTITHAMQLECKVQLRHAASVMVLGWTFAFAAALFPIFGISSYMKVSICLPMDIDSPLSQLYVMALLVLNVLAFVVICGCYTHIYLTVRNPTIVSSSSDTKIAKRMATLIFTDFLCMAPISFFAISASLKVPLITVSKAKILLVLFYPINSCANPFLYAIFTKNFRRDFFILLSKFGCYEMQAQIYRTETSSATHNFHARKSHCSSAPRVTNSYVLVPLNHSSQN
Protocol: In Vitro Bio-test Procedure of Agonists and Antagonists to the FSH Receptor Using Primary Cultures of Rat Granulosa
Materials and Methods: Reagents
The concentration of vehicle was maintained constant throughout all dilutions.
Preparation of Granulosa Cells: Twenty-four day-old immature female Sprague-Dawley rats (Charles River Laboratories, Wilmington, Mass.) were used as donors for ovarian granulosa cells. The animals were treated by single daily injections of 100 mg/kg diethylstilbestrol (DES) in oil over three days. On the fourth day, animals were sacrificed by CO2 asphyxiation and the ovaries were removed. Ovaries were washed three times in 50 mL of sterile HEPES-buffered saline (HBS, pH 7.4). Granulosa cells were harvested by incubating ovaries in a hypertonic medium consisting of serum-free McCoy*s SA medium (Gibco Life Sciences, Grand Island, N.Y.) supplemented with […], […], 5 ng/mL sodium selenite (ITS, Sigma Chemical Co., St. Louis Mo.), […] L-glutamine, 100 nM testosterone, 100 nM DES and 100 U/mL penicillin/[…]/250 ng/mL amphotericin B (antibiotic/antimycotic, Gibco) containing 0.5 M sucrose and 0.1 mM EGTA. Ovaries were then incubated for 45 min. at 37 C. in a humidified incubator gassed with 95% air/5% CO2. They were washed 3 times with 10 mL isotonic medium (hypertonic medium without sucrose and EGTA) and incubated another 45 min. in isotonic medium at 37 C. Granulosa cells were harvested by squeezing the ovaries between two sterile glass microscope slides. Isolated granulosa cells were then placed in an 50 mL centrifuge tube and washed two times by the addition of 50 mL serum-free McCoy*s 5A medium followed by centrifugation at 700×g for 5 min. After the final spin, the cells were resuspended by gentle trituration in 25 mL serum-free medium, an aliquot counted in a hemocytometer and viability estimated by trypan blue exclusion. Cells were plated into 24-well Nunc tissue culture plates at 200,000 viable cells/well in […].
Procedure: Following plating of the cells, the plates are incubated at 37 C for 2-4 hours at which time the treatments are added to the cells. Treatments are added to the wells at 2× the desired final concentration in […] in isotonic medium containing 0.2% BSA. The cells are incubated at 37 C. for 72 h. At the end of the incubation period, the medium is removed from the wells and tested for estradiol concentration by radioimmunoassay.
Experimental Groups: In the 24-well format, the plate was divided into 6 columns of 4 wells/column. One plate per compound was used to test either agonist or antagonist modes. […]
Four different doses of compound were tested in the antagonist mode. In addition, one column was used for a negative control (vehicle alone) and the other remaining column for a positive control (ED50 of FSH alone).
The doses of compound chosen to test were extrapolated from the initial functional screening process. Along with the plates testing compounds, another plate was run in parallel using a dose-response of FSH (0.01-100 ng/mL) as a positive control.
Analysis of Results: Estradiol was expressed as pg/mL. Estradiol secretion in agonist mode, or the ability of the compound to inhibit FSH-induced estradiol secretion in antagonist, was compared to the appropriate negative and positive controls. Data were analyzed statistically by analysis of variance with Huber weighting of log transformed data. Paired differences were determined using the LSD test
Reference Compounds: Test compounds were compared to the effect of purified or recombinant human FSH.

In order of falling IC50:
1. COc1ccc(C(=O)Nc2ccc(/C=C/c3ccc(NC(=O)c4ccc(OC)c(S(=O)(=O)N5CCN(C(C)=O)CC5)c4)cc3S(=O)(=O)O)c(S(=O)(=O)O)c2)cc1S(=O)(=O)N1CCN(C(C)=O)CC1 [Example 34a, 2,2′-[(E)-1,2-Ethenediyl]bis[5-[[3-[(4-acetyl-1-piperazinyl)sulfonyl]-4-methoxybenzoyl]amino]benzenesulfonic Acid]]  57000 nM
2. COc1ccc(C(=O)Nc2ccc(CCc3ccc(NC(=O)c4ccc(S(C)(=O)=O)cc4)cc3S(=O)(=O)O)c(S(=O)(=O)O)c2)cc1S(=O)(=O)N1CCOCC1 [Example 43a, 5-[[4-Methoxy-3-(4-morpholinylsulfonyl)benzoyl]amino]-2-[2-[4-[[4-(methylsulfonyl)benzoyl]amino]-2-sulfophenyl]ethyl]benzenesulfonic Acid]  17000 nM
3. COc1ccc(C(=O)Nc2ccc(/C=C/c3ccc(NC(=O)c4ccc(OC)c(S(=O)(=O)N5CCSCC5)c4)cc3S(=O)(=O)O)c(S(=O)(=O)O)c2)cc1S(=O)(=O)N1CCSCC1 [Example 33d, 2,2′-[(E)-1,2-Ethenediyl]bis[5-[[4-methoxy-3-(4-thiomorpholinylsulfonyl)benzoyl]amino]benzenesulfonic Acid]]  10000 nM
4. COCCNS(=O)(=O)c1cc(C(=O)Nc2ccc(/C=C/c3ccc(NC(=O)c4ccc(S(C)(=O)=O)c([N+](=O)[O-])c4)cc3S(=O)(=O)O)c(S(=O)(=O)O)c2)ccc1OC [Example 30f]  8000 nM
5. COCCNS(=O)(=O)c1cc(C(=O)Nc2ccc(/C=C/c3ccc(NC(=O)c4ccc(OC)c(S(=O)(=O)NCCOC)c4)cc3S(=O)(=O)O)c(S(=O)(=O)O)c2)ccc1OC [Example 30m, 2,2′-[(E)-1,2-Ethenediyl]bis[5-[[4-methoxy-3-[[(2-methoxyethyl)amino]sulfonyl]benzoyl]amino]benzenesulfonic Acid]]  6700 nM
6. COc1ccc(C(=O)Nc2ccc(/C=C/c3ccc(NC(=O)c4ccc(OC)c(S(=O)(=O)N5CCN(C=O)CC5)c4)cc3S(=O)(=O)O)c(S(=O)(=O)O)c2)cc1S(=O)(=O)N1CCN(C=O)CC1 [Example 34b, 2,2′-[(E)-1,2-Ethenediyl]bis[5-[[3-[(4-formyl-1-piperazinyl)sulfonyl]-4-methoxybenzoyl]amino]benzenesulfonic Acid]]  4900 nM
7. COc1ccc(C(=O)Nc2ccc(/C=C/c3ccc(NC(=O)c4ccc(OC)c(S(=O)(=O)N5CCS(=O)(=O)CC5)c4)cc3S(=O)(=O)O)c(S(=O)(=O)O)c2)cc1S(=O)(=O)N1CCS(=O)(=O)CC1 [Example 30k, 2,2′-[(E)-1,2-Ethenediyl]bis[5-[[3-[(1,1-dioxido-4-thiomorpholinyl)sulfonyl]-4-methoxybenzoyl]amino]benzenesulfonic Acid]]  3100 nM
8. CS(=O)(=O)c1ccc(C(=O)Nc2ccc(/C=C/c3ccc(NC(=O)c4ccc(S(C)(=O)=O)c(S(=O)(=O)N5CCOCC5)c4)cc3S(=O)(=O)O)c(S(=O)(=O)O)c2)cc1S(=O)(=O)N1CCOCC1 [Example 30d, 2,2′-[(E)-1,2-Ethenediyl]bis[5-[[4-(methylsulfonyl)-3-(4-morpholinylsulfonyl)benzoyl]amino]benzenesulfonic Acid]]  2800 nM
9. CCS(=O)(=O)c1ccc(C(=O)Nc2ccc(/C=C/c3ccc(NC(=O)c4ccc(S(=O)(=O)CC)cc4)cc3S(=O)(=O)O)c(S(=O)(=O)O)c2)cc1 [Example 32f, 2,2′-[(E)-1,2-Ethenediyl]bis[5-[[4-(ethylsulfonyl)benzoyl]amino]benzenesulfonic Acid]]  2800 nM
10. COc1ccc(C(=O)Nc2ccc(/C=C/c3ccc(NC(=O)c4ccc(OC)c(S(=O)(=O)N5CCCC5)c4)cc3S(=O)(=O)O)c(S(=O)(=O)O)c2)cc1S(=O)(=O)N1CCCC1 [Example 33e, 2,2′-[(E)-1,2-Ethenediyl]bis[5-[[4-methoxy-3-(1-pyrrolidinylsulfonyl)benzoyl]amino]benzenesulfonic Acid]]  2100 nM
11. COCCOCCOc1ccc(C(=O)Nc2ccc(/C=C/c3ccc(NC(=O)c4ccc(OCCOCCOC)c(S(=O)(=O)N5CCOCC5)c4)cc3S(=O)(=O)O)c(S(=O)(=O)O)c2)cc1S(=O)(=O)N1CCOCC1 [Example 30a, 2,2′-[(E)-1,2-Ethenediyl]bis[5-[[4-[2-(2-methoxyethoxy)ethoxy]-3-(4-morpholinylsulfonyl)benzoyl]amino]benzenesulfonic Acid]]  1900 nM
12. CSc1ccc(C(=O)Nc2ccc(/C=C/c3ccc(NC(=O)c4ccc(S(C)(=O)=O)c([N+](=O)[O-])c4)cc3S(=O)(=O)O)c(S(=O)(=O)O)c2)cc1S(=O)(=O)N1CCOCC1 [Example 30e]  1800 nM
13. COCCOc1ccc(C(=O)Nc2ccc(/C=C/c3ccc(NC(=O)c4ccc(OCCOC)c(S(=O)(=O)N5CCOCC5)c4)cc3S(=O)(=O)O)c(S(=O)(=O)O)c2)cc1S(=O)(=O)N1CCOCC1 [Example 30t, 2,2′-[(E)-1,2-Ethenediyl]bis[5-[[4-(2-methoxyethoxy)-3-(4-morpholinylsulfony)benzoyl]amino]benzenesulfonic Acid]]  1400 nM
14. CS(=O)(=O)c1ccc(C(=O)Nc2ccc(/C=C/c3ccc(NC(=O)c4ccc(S(C)(=O)=O)cc4)cc3S(=O)(=O)O)c(S(=O)(=O)O)c2)cc1 [Example 30q, 2,2′-[(E)-1,2-Ethenediyl]bis[5-[[4-(methylsulfonyl)benzoyl]amino]benzenesulfonic Acid]]  1300 nM
15. COc1ccc(C(=O)Nc2ccc(/C=C/c3ccc(NC(=O)c4ccc(OC)c(S(=O)(=O)N5CCOCC5)c4)cc3S(=O)(=O)O)c(S(=O)(=O)O)c2)cc1S(=O)(=O)N1CCOCC1 [Example 30s, 2,2′-[(E)-1,2-Ethenediyl]bis[5-[[4-methoxy-3-(4-morpholinylsulfonyl)benzoyl]amino]benzenesulfonic Acid]]  1200 nM
16. O=C(Nc1ccc(/C=C/c2ccc(NC(=O)c3ccc(OC4CCOCC4)c(S(=O)(=O)N4CCOCC4)c3)cc2S(=O)(=O)O)c(S(=O)(=O)O)c1)c1ccc(OC2CCOCC2)c(S(=O)(=O)N2CCOCC2)c1 [Example 30r, 2,2′-[(E)-1,2-Ethenediyl]bis[5-[[3-(4-morpholinylsulfonyl)-4-[(tetrahydro-2H-pyran-4-yl)oxy]benzoyl]amino]benzenesulfonic Acid]]  1100 nM

same assay, conditions: antagonist mode, inhibition of FSH-induced estradiol secretion (ED50 of FSH, 0.5 ng/mL), rat granulosa cells, 72 h

In order of falling IC50:
1. CS(=O)(=O)c1ccc(C(=O)Nc2ccc(/C=C/c3ccc(NC(=O)c4ccc(S(C)(=O)=O)c([N+](=O)[O-])c4)cc3S(=O)(=O)O)c(S(=O)(=O)O)c2)cc1[N+](=O)[O-] [Example 30c, 2.2′-[(E)-1,2-Ethenediyl]bis[5-[[(4-methylsulfonyl)-3-(nitro)-benzoyl]amino]benzenesulfonic Acid]]  3800 nM
2. COc1ccc(C(=O)Nc2ccc(/C=C/c3ccc(NC(=O)c4ccc(S(C)(=O)=O)cc4)cc3S(=O)(=O)O)c(S(=O)(=O)O)c2)cc1S(=O)(=O)N1CCOCC1 [Example 30g]  2400 nM
